The subject of one test is PCSK9 promoter. Put plainly: PCSK9 promoter-reporter luciferase assay in HEK293T cells. The test is classed as cell-based, human. As to conditions: pGL4.14-PCSK9-transfected HEK293T cells, 2.5-20 μM, 18 hours. As to the method: In order to confirm the PCSK9 gene expression inhibitory effect of noranhydroicaritin, HEK293T cells were treated with noranhydroicaritin at various concentrations, and it was confirmed whether the expression of PCSK9 was inhibited through a luciferase assay.
i) A primer was prepared to contain KpnI and XhoI restriction enzyme sites in the PCSK9 promoter gene region, and then PCR (polymerase chain reaction) and electrophoresis on an agarose gel were performed to isolate PCSK9 promoter region DNA. A pGL4.14-[luc2/Hygro] vector containing a firefly luciferase as a reporter gene was treated with the same restriction enzymes (KpnI and XhoI), and then isolated via agarose gel electrophoresis and gel extraction. […]
ii) In order to measure the transcriptional activity of the PCSK9 promoter gene, HEK293T cells were transfected with pGL4.14-PCSK9, and then the luciferase activity of the cell extract was measured. […]
iii) After 18 hours of incubation, cells were washed with PBS one time, an appropriate amount of luciferase reagent was added to each well, then the plate was shaken for 15 min, the supernatant was obtained, and the transcriptional activity was measured. Passive lysis buffer was used, and the luciferase activity was measured using a microplate luminometer (Tecan). […]

The subject of test [1] is PCSK9. Put plainly: Immunoblot of PCSK9 in HepG2 cells. The test is classed as cell-based, human. As to conditions: HepG2 cells, 5, 10, 20 μM. As to the method:
In order to confirm the effect of noranhydroicaritin to inhibit PCSK9 expression and increase LDLR expression, immunoblotting targeting PCSK9 and LDLR was performed and the expression levels were compared. β-Actin was used as a control.
In a 100 mm Petri dish, 1×10^6 HepG2 cells were aliquoted and treated with noranhydroicaritin at various concentrations (5 μM, 10 μM, and 20 μM), and then the cells were removed from the cell-culture dish and homogenized using a protein extraction solution (NP40, ELPIS BIOTECH, Korea) containing a protease inhibitor cocktail (Roche).
In order to prepare the total protein, the cells were extracted in RIPA lysis buffer (50 mM Tris-HCl (pH 7.4), 150 mM NaCl, 5 mM EDTA, 5 mM EGTA, 5 mM sodium fluoride, 2 mM sodium orthovanadate, 1% NP-40, 0.1% sodium dodecyl sulfate [SDS], 1 mM phenylmethylsulfonyl fluoride [PMSF], and protein inhibitor cocktail [Roche Diagnostics, Heidelberg, Germany]). The protein concentration in the lysate was measured using the Bio-Rad dye-binding micro assay. For immunoblotting, 30 μg of cell lysate was isolated via SDS-polyacrylamide gel electrophoresis (PAGE). The proteins were transferred onto the Hybond-ECL nitrocellulose membrane (Amersham Biosciences, Buckinghamshire, UK). […] HRP-conjugated secondary antibodies were detected using an ECL detection reagent.

Another test has as its system PPARγ. Put plainly: PPARγ expression in HepG2 cells (RealTime-PCR, immunohistochemistry). The test is classed as cell-based, human. As to the method:
In order to confirm the effect of increasing the expression of PPARα and PPARγ of noranhydroicaritin, PCR using PPARα primers and immunohistochemistry targeting PPARα and PPARγ were performed to confirm the expression levels.
Using cDNA synthesized with RNA according to the method of Example 4, the quantities of PPARα mRNA and PPARγ mRNA were confirmed through RealTime-PCR analysis. The group treated only with DMSO was used as a negative control. For immunohistochemistry, HepG2 cells were attached to a slide chamber, then treated with noranhydroicaritin at 20 μM, and incubated. After fixation with formalin, the HepG2 cells were stained with antibodies targeting PPARα and PPARγ, and treated with DAPI to stain nuclei, and the degree of fluorescent expression was confirmed using a confocal microscope.

Another test relates to MCP-1. Briefly: Immunofluorescence of MCP-1 in carotid artery, mouse arteriosclerosis model. As to conditions: 10 μg/g/day. The test is classed as in vivo. As to the method:
(§1) Carotid artery ligation was performed one week after injection of AAV-PCSK9 Virus (1×10^11 IFU/mL) and noranhydroicaritin (10 μg/g/day). After 3 weeks of ligation, it was confirmed whether the atherosclerosis model was completed, and gross plaque imaging and immunofluorescence were performed to confirm the arteriosclerosis inhibitory effect of noranhydroicaritin.
(§2) Furthermore, the arteriosclerosis inhibitory effect of noranhydroicaritin was confirmed using immunofluorescence. Specifically, a mouse carotid artery was obtained and fixed in 4% PFA for one day, and then prepared into a block. As the inflammatory response in blood vessels progresses, the arteriosclerosis worsens, and thus the marker […] of macrophages causing arteriosclerotic inflammatory response and TNF-α, IL-1B, and MCP-1, which are pro-inflammatory cytokines secreted when the inflammatory response occurs, were stained. Staining was performed using the antibody for each of CAP1(1:200), PCSK9(1:100), F4/80(1:100), TNF-α(1:100), […], and MCP-1(1:100), then imaging was performed using a confocal microscope, and […] was evaluated.

The subject of test [2] is PCSK9. Briefly: Immunofluorescence of PCSK9 in carotid artery, mouse arteriosclerosis model. The test is classed as in vivo. As to conditions: 10 μg/g/day, compared to control. The procedure:
as §1, §2

Consider one compound from patent US20220151979A1, “COMPOSITION FOR PREVENTION OR TREATMENT OF CARDIOVASCULAR AND METABOLIC DISEASE COMPRISING NORANHYDROICARITIN” (SEOUL NATIONAL UNIVERSITY HOSPITAL, priority 2019, published 2022).

Each structure is given as a SMILES string.

`CC(C)=CCc1c(O)cc(O)c2c(=O)c(O)c(-c3ccc(O)cc3)oc12` [Noranhydroicaritin, noranhydroicaritin]: in the test with PCSK9 promoter, the PCSK9 luciferase activity entry was “decreased in a noranhydroicaritin concentration-dependent manner”. Moreover, the “PCSK9 expression (immunoblot)” value in the test with PCSK9 [1] is reported as “decreased in a concentration-dependent manner”. The “expression of PPARγ” value in the test on PPARγ is given as “increased in a concentration-dependent manner”. The “expression of MCP-1 (immunofluorescence)” value with MCP-1 is given as “decreased”. Also, in the test with PCSK9 [2], the “expression of PCSK9 (immunofluorescence)” value is listed as “significantly decreased”.
